This note sets out measurements from patent publication US8785452B2, “Anti-infective compounds” (priority 2008, dated 2014).

Like-named read-outs stand apart in the source and are kept apart here.

The term inhibition denotes the change of the read-out against control, counted positive when it falls.

The test system of this test is M. tuberculosis H37Rv-GFP. Description: microbe, parasite or virus in culture. The class given is cell-based, Mycobacterium tuberculosis. The following applies: Mycobacterium tuberculosis, H37RV, Macrophage.
Setting [1] is: confirmation, 20 uM, intracellular, read-out: QIM Confirm % Inhibition 20 uM.
[2] abbreviates: primary screen, 20 μM, intracellular, read-out: Primary QIM % Inhibition.
Where [3] appears, read: read-out: Primary QIM % Inhibition.
The mark [4] stands for this setting: read-out: QIM Confirm % Inhibition 20 uM.

As to `Cc1ccn2cc(-c3ccc(F)cc3)nc2c1` [IPK 000 129 91], the inhibition at 20 µM was 38.2% under setting [1] and -36% under setting [2].
The like results for `O=C1OCc2cc(NC(=O)C34CC5CC(CC(C5)C3)C4)ccc21` [IPK 000 249 14] were, in that order, 68.6% and 45%.
Taken in the same sequence, the figures for `CC(C)(C)c1ccc(-c2nc(Oc3ccc(O)cc3)c3ccccc3n2)cc1` [IPK 000 142 18] were 79.4% and 73.2%.
As for `O=C(Nc1nccs1)c1ccc(COc2ccc(F)cc2)o1` [IPK 000 141 08], the inhibition at 20 µM runs as follows: under setting [1], 84%; under setting [2], 67.5%.
Taken in the same sequence, the figures for `COc1cccc(C(O)c2cccs2)c1` (centres unmarked) [IPK 000 171 27] were 95.2% and 95.2%.
The like results for `O=C(Nc1ccc(Cl)cc1)Nc1ccc(C(F)(F)F)cc1` [IPK 000 146 98] were, in that order, 26.5% and 55.8%.
Taken in the same sequence, the figures for `CCOc1ccc(C(=O)NCCC(C)C)cc1` [IPK 000 210 83] were 48.2% and 70.4%.
Consider `O=C(NCCC1=CCCCC1)c1ccc(Br)o1` [IPK 000 184 56], for which the inhibition at 20 µM is 72.7% under setting [1] and 85.1% under setting [2].
For `O=C(CSc1ccc(Nc2ccc(Cl)cc2)nn1)Nc1ccc(Cl)cc1` [IPK 000 200 16], the inhibition at 20 µM runs as follows: under setting [1], 76.8%; under setting [2], 73.3%.
Taken in the same sequence, the figures for `Cc1ccc(NC(=O)c2ccc(F)cc2)cc1Cl` [IPK 000 205 22] were 69.7% and 85.1%.
The like results for `COc1ccc(-c2csc(-c3cccnc3)n2)cc1` [IPK 000 144 22] were, in that order, 30% and -9.8%.
The like results for `Cc1ccc(C(=O)NCCSC2CCCCC2)cc1[N+](=O)[O-]` [IPK 000 229 50] were, in that order, 83.6% and 60.1%.
For `COc1ccc(/C=N/Nc2nc(-c3ccccc3)cs2)cc1` [IPK 000 163 62], the inhibition at 20 µM by setting is: under setting [1], 107%; under setting [2], 81.3%.
The like results for `Nc1nc2ccccc2c(-c2cccc3ccccc23)c1CN1CC1` [IPK 000 222 04] were, in that order, 85.8% and 65.4%.
Taken in the same sequence, the figures for `COc1ccccc1N1CCN(C(=O)c2ccc([N+](=O)[O-])o2)CC1` [IPK 000 235 12] were 26.9% and -67.9%.
Take `CCOc1ccc(NN=C(C#N)C#N)cc1` [IPK 000 170 72]: the inhibition at 20 µM runs as follows: under setting [3], -29.5%; under setting [4], -21.3%.
Turning to `C/C(=N/NC(=O)c1cc2ccccc2cc1O)c1ccc(O)cc1` [IPK 000 180 11], the inhibition at 20 µM reads like this: under setting [1], 69.7%; under setting [2], 68.2%.
The like results for `CCOc1ncccc1C(=O)N/N=C/c1ccc([N+](=O)[O-])o1` [IPK 000 148 65] were, in that order, 29.1% and 41.2%.
Taken in the same sequence, the figures for `O=C(COc1ccccc1)N/N=C/c1ccc([N+](=O)[O-])o1` [IPK 000 149 78] were 3.6% and 15.2%.
Taken in the same sequence, the figures for `CCCC(=O)Nc1ccc(-c2csc(N/N=C/c3ccc(SC)cc3)n2)cc1` [IPK 000 163 51] were 50% and 89.4%.
As to `CC12CC3CC(C)(C1)CC(NC(=O)c1ccc(N4CCCC4)c([N+](=O)[O-])c1)(C3)C2` [IPK 000 230 02], the inhibition at 20 µM is, setting by setting: under setting [3], -7.7%; under setting [4], 40.5%.
`O=C(NCCC1=CCCCC1)C(=O)Nc1cccc(F)c1` [IPK 000 133 46]: the inhibition at 20 µM reads like this: under setting [1], 94.4%; under setting [2], 69.6%.
In the case of `C/C(Cn1nnc([N+](=O)[O-])n1)=N\Nc1c(Cl)cc(Cl)cc1Cl` [IPK 000 150 48], the inhibition at 20 µM under setting [1] came to 16.1% and the inhibition at 20 µM under setting [2] is -96.3%.
The like results for `C#C/C(=C/c1ccc(-c2ccc(N3CCCCC3)c([N+](=O)[O-])c2)o1)C(=O)OCC` [IPK 000 229 72] were, in that order, 90.7% and 69.4%.
The like results for `CCCCS(=O)(=O)Nc1ccc(Cc2ccncc2)cc1` [IPK 000 249 12] were, in that order, 53.2% and 23.6%.
With `Cc1ccc(C)n1-c1ccc(C(=O)O)c(O)c1` [IPK 000 200 47], the inhibition at 20 µM was determined as 19.1% under setting [1] and 6.3% under setting [2].
Taken in the same sequence, the figures for `C/C(=N\NC(=O)c1ccccc1)c1ccc2ccccc2c1` [IPK 000 139 17] were 65.8% and 72.9%.
Taken in the same sequence, the figures for `O=[N+]([O-])c1ccc(Cl)c(/C=N/c2ccccc2O)c1` [IPK 000 169 68] were -5.3% and -5%.
Taken in the same sequence, the figures for `CC/C(=N/Nc1nc(-c2ccc(NC(C)=O)cc2)cs1)c1ccccc1` [IPK 000 163 64] were 74.2% and 74.9%.
As to `CCOC(=O)c1sc(NC(=O)CCC2CCCCC2)nc1C` [IPK 000 255 46], the inhibition at 20 µM came out at 53.1% under setting [1] and 25% under setting [2].
The like results for `O=C(NC12CC3CC(CC(C3)C1)C2)N1CCN(c2ccccc2)CC1` [IPK 000 249 84] were, in that order, 80.9% and 78.2%.
The like results for `O=C(c1ccc([N+](=O)[O-])o1)N1CCN(Cc2ccccc2)CC1` [IPK 000 135 28] were, in that order, 26.6% and 53.3%.
Taken in the same sequence, the figures for `O=C(Nc1ccc(C(F)(F)F)cc1)Nc1cccc(Cl)c1` [IPK 000 147 54] were 10.1% and -10.9%.
For `CCOc1cc(/C=N\NC(=O)COc2ccc(C(C)C)cc2)ccc1O` [IPK 000 138 40], the inhibition at 20 µM worked out at 86.4% under setting [1] and 75% under setting [2].
Taken in the same sequence, the figures for `COc1ccc(/C=C2\c3ccccc3-c3ccc(C(=O)CCCCN4CCCCC4)cc32)cc1OC` [IPK 000 198 54] were 77.9% and 38.6%.
The like results for `O=C(COc1ccc(F)cc1)Nc1nccs1` [IPK 000 247 44] were, in that order, 97.1% and 89.1%.
Taken in the same sequence, the figures for `CC(C)(C)c1ccc(C(=O)NC2CCCCCCC2)cc1` [IPK 000 248 71] were 79% and 79.5%.
In the case of `C/C(=C\c1ccc2c(c1)OCO2)[N+](=O)[O-]` [IPK 000 240 37], the inhibition at 20 µM is 17% under setting [3] and 67.5% under setting [4].
The like results for `O=[N+]([O-])c1ccc(/C=N/c2ccc(Cl)c([N+](=O)[O-])c2)o1` [IPK 000 178 24] were, in that order, -26.4% and -4.1%.
In the case of `NNC(=O)c1ccc(COc2ccc(Cl)cc2)o1` [IPK 000 140 87], the inhibition at 20 µM runs as follows: under setting [1], 91.1%; under setting [2], 92.2%.
Taken in the same sequence, the figures for `O=C(Nc1ccc(Br)c(Cl)c1)c1cccs1` [IPK 000 169 42] were 76.9% and -64%.
The like results for `Cc1ccc(NC(=O)c2ccc(CSC3=NCCS3)cc2)c(C)c1` [IPK 000 125 15] were, in that order, 88.7% and 87.1%.
Consider `NNC(=O)CSc1nc2ccccc2s1` [IPK 000 160 45], for which the inhibition at 20 µM under setting [1] came out at 70.7% and the inhibition at 20 µM under setting [2] came out at 66%.
Taken in the same sequence, the figures for `CCN(CC)c1ccc(/C=N/NC(=O)c2ccncc2)cc1` [IPK 000 195 99] were 69.5% and 79.1%.
The like results for `CC1=NN(C(N)=S)C(=O)/C1=N/Nc1ccc(C)cc1` [IPK 000 168 31] were, in that order, 78.1% and 83.9%.
As to `CC1=NN(c2ccc([N+](=O)[O-])cc2)C(=O)/C1=N/Nc1c(Cl)cc([N+](=O)[O-])cc1Cl` [IPK 000 179 49], the inhibition at 20 µM reads like this: under setting [3], 65.7%; under setting [4], 78.5%.
On to `O=C(COc1ccc(F)cc1)N/N=C/c1ccc([N+](=O)[O-])o1` [IPK 000 148 04], for which the inhibition at 20 µM reads like this: under setting [1], 59.3%; under setting [2], 21.8%.
In the case of `C/C(=N\NC(=S)Nc1cccc(C)c1)c1ccccc1O` [IPK 000 173 06], the inhibition at 20 µM runs as follows: under setting [1], 15.8%; under setting [2], 44%.
The like results for `O=[N+]([O-])c1ccc(/C=N/c2ccccc2O)s1` [IPK 000 169 76] were, in that order, 16.7% and -71.9%.
In the case of `ON=C(/C=C/c1ccccc1)/C=C/c1ccccc1` [IPK 000 168 10], the inhibition at 20 µM by setting is: under setting [1], 65.6%; under setting [2], 38%.
In the case of `Cc1ccoc1/C=N/NC(=O)c1ccncc1` [IPK 000 193 76], the inhibition at 20 µM turned out to be 97.4% under setting [1] and 81.4% under setting [2].
The like results for `CS(=O)(=O)c1nc(-c2ccc(Br)cc2)n[nH]1` [IPK 000 134 62] were, in that order, 25.5% and -56.1%.
Regarding `O=C(Nc1ccc(Cl)c(Cl)c1)c1ccc(Cn2cc(Br)cn2)cc1` [IPK 000 180 17], the inhibition at 20 µM was found to be 34.5% under setting [1] and 63.2% under setting [2].
The like results for `O=C(Nc1ccc(C(F)(F)F)cc1)Nc1cccc(F)c1` [IPK 000 146 91] were, in that order, 70% and 57%.
Taken in the same sequence, the figures for `Cc1cc(C)nc(NC(=N)Nc2ccc(OCc3ccc(Cl)cc3)cc2)n1` [IPK 000 163 93] were 89.9% and 66.7%.
The like results for `O=c1c(/C=N/Cc2ccco2)c(NCc2ccco2)nc2ccccn12` [IPK 000 130 26] were, in that order, 29.9% and 66.3%.
Regarding `O=C(Nc1ccc(Cl)c(Cl)c1)c1ccco1` [IPK 000 048 49], the inhibition at 20 µM runs as follows: under setting [3], 84.5%; under setting [4], 92.9%.
Consider `O=C(NCCc1ccccc1)c1ccc([N+](=O)[O-])o1` [IPK 000 235 09], for which the inhibition at 20 µM under setting [1] worked out at 36.4% and the inhibition at 20 µM under setting [2] came to 46.2%.
